The source of these data is patent US20240173432A1, “Compositions and Methods for Treatment of Myotonic Dystrophy Type 1 with CRISPR/SluCas9” (Vertex Pharmaceuticals Incorporated, priority 2021, published 2024).

One series deals with CAG foci in primary DM1 patient myoblasts. In words: Single-cut screening: CAG foci staining. Type of series: cell-based, human. The note with it: single sgRNA, DNA-PKi treated. The gist of the method: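 Primary DM1 patient myoblasts were PFA-fixed and hybridized with […] (1 ng/μL, 15 min at 80° C) in 30% formamide/2×SSC, followed by anti-MBNL1 immunostaining and Hoechst counterstain. CAG RNA foci were quantified by high-content confocal imaging after single-cut SuCas9 sgRNA editing.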
“CCCCCTAGCggccggggaggga (guide RNA; as printed in the source, key not given here) [SluU44]”: the “% of CAG foci positive nuclei (DNA-PKi)” value came out at 1.77%.

Regarding “CCCCGGGCACTCAGTCTTCCAA (guide RNA; chemistry not fully specified) [SluU12]”, the “% of CAG foci positive nuclei (DNA-PKi)” value was determined as 1.38%.

On to “CCCCGTTGGAAGACTGAGTGCC (guide RNA; chemistry not fully specified) [SluU09]”, for which the “% of CAG foci positive nuclei (DNA-PKi)” value is reported as 1.22%.

For “CCCCTCCTCACTTGCGCTGCTC (guide RNA; chemistry not fully specified) [SluD47]”, the “% of CAG foci positive nuclei (DNA-PKi)” value turned out to be 1.11%.

“CCCGGGCACTCAGTCTTCCAAC (guide RNA; chemistry not fully specified) [SluU11]”: the “% of CAG foci positive nuclei (DNA-PKi)” value is given as 1.27%.

Take “CCCGTTGGAAGACTGAGTGCCC (listed as DNA, chemistry not fully specified) [SluU10]”: the “% of CAG foci positive nuclei (DNA-PKi)” value was 0.66%.

Take “CCCTAGAACTGTCTTCGACTCC (guide RNA; chemistry not fully specified) [SluU03]”: the “% of CAG foci positive nuclei (DNA-PKi)” value is reported as 2.04%.

As for “CCGAGAGCAGCGCAAGTGAGGA (guide RNA; chemistry not fully specified) [SluD50]”, the “% of CAG foci positive nuclei (DNA-PKi)” value was found to be 2.2%.

As to “CCGGGCCCGCCCCCTAGCggcc (guide RNA; as printed in the source, key not given here) [SluU37]”, the “% of CAG foci positive nuclei (DNA-PKi)” value came out at 2.28%.

With “CCTCCGACTCGCTGACAGGCTA (guide RNA; chemistry not fully specified) [SluD67]”, the “% of CAG foci positive nuclei (DNA-PKi)” value is reported as 1.8%.

The same series, now with this note: single sgRNA, vehicle.
Regarding “CCCCCTAGCggccggggaggga (guide RNA; as printed in the source, key not given here) [SluU44]”, the “% of CAG foci positive nuclei (Vehicle)” value is 0.7%.

In the case of “CCCCGGGCACTCAGTCTTCCAA (guide RNA; chemistry not fully specified) [SluU12]”, the “% of CAG foci positive nuclei (Vehicle)” value was 1.29%.

Turning to “CCCCGTTGGAAGACTGAGTGCC (guide RNA; chemistry not fully specified) [SluU09]”, the “% of CAG foci positive nuclei (Vehicle)” value is 1.48%.

For the substance “CCCCTCCTCACTTGCGCTGCTC (guide RNA; chemistry not fully specified) [SluD47]”, the “% of CAG foci positive nuclei (Vehicle)” value is given as 1%.

Turning to “CCCGGGCACTCAGTCTTCCAAC (guide RNA; chemistry not fully specified) [SluU11]”, the “% of CAG foci positive nuclei (Vehicle)” value turned out to be 1.44%.

Consider “CCCGTTGGAAGACTGAGTGCCC (listed as DNA, chemistry not fully specified) [SluU10]”, for which the “% of CAG foci positive nuclei (Vehicle)” value was found to be 2%.

For “CCCTAGAACTGTCTTCGACTCC (guide RNA; chemistry not fully specified) [SluU03]”, the “% of CAG foci positive nuclei (Vehicle)” value amounted to 1.05%.

For the substance “CCGAGAGCAGCGCAAGTGAGGA (guide RNA; chemistry not fully specified) [SluD50]”, the “% of CAG foci positive nuclei (Vehicle)” value is 1.81%.

In the case of “CCGGGCCCGCCCCCTAGCggcc (guide RNA; as printed in the source, key not given here) [SluU37]”, the “% of CAG foci positive nuclei (Vehicle)” value amounted to 0.72%.

Turning to “CCTCCGACTCGCTGACAGGCTA (guide RNA; chemistry not fully specified) [SluD67]”, the “% of CAG foci positive nuclei (Vehicle)” value was 0.69%.

The test system of a further series is 3′ UTR of the human DMPK gene. Description: Single-cut screening: indel editing efficiency by Sanger sequencing and ICE analysis in primary DM1 patient myoblasts. Particulars: single SluCas9 sgRNA RNP in primary DM1 patient myoblasts; Sanger sequencing and ICE analysis; vehicle-treated samples. Type of series: cell-based. The gist of the method: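 Indels were estimated by ICE from Sanger chromatograms of PCR amplicons covering the DMPK 3′ UTR wild-type allele, using only vehicle-treated samples; sgRNAs with R2<0.9 are flagged. Samples came from primary DM1 patient myoblasts (2 × 10^5) harvested 72 h after nucleofection with 30 pmol SluCas9 and 90 pmol single sgRNA RNP.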
On to “CCCCCTAGCggccggggaggga (guide RNA; as printed in the source, key not given here) [SluU44]”, for which the Indel efficiency is 16%.

Substance “CCCCGGGCACTCAGTCTTCCAA (guide RNA; chemistry not fully specified) [SluU12]” displayed an Indel efficiency of 20%.

The substance “CCCCGTTGGAAGACTGAGTGCC (guide RNA; chemistry not fully specified) [SluU09]” yielded an Indel efficiency of 65%.

“CCCCTCCTCACTTGCGCTGCTC (guide RNA; chemistry not fully specified) [SluD47]” came in with an Indel efficiency of 18%.

For “CCCGGGCACTCAGTCTTCCAAC (guide RNA; chemistry not fully specified) [SluU11]”, the Indel efficiency worked out at 21%.

In the case of “CCCGTTGGAAGACTGAGTGCCC (listed as DNA, chemistry not fully specified) [SluU10]”, the Indel efficiency is given as 81%.

In turn, “CCCTAGAACTGTCTTCGACTCC (guide RNA; chemistry not fully specified) [SluU03]” yielded an Indel efficiency of 9%.

For the substance “CCGAGAGCAGCGCAAGTGAGGA (guide RNA; chemistry not fully specified) [SluD50]”, the Indel efficiency was determined as 4%.

“CCGGGCCCGCCCCCTAGCggcc (guide RNA; as printed in the source, key not given here) [SluU37]” yielded an Indel efficiency of 15%.

On to “CCTCCGACTCGCTGACAGGCTA (guide RNA; chemistry not fully specified) [SluD67]”, for which the Indel efficiency worked out at 39%.

Staying with this series, now noted: single-cut; SluCas9 RNP; vehicle-treated samples; 72 hrs post nucleofection; wild-type allele.
In the case of “CCCGTTGGAAGACTGAGTGCCC (listed as DNA, chemistry not fully specified) [SluU10]”, the “indel efficiency (Sanger sequencing and ICE analysis)” value is recorded as “high editing IN4DEL efficiency”.

A further series relates to CUG foci in primary DM1 patient myoblasts. In words: Single-cut screening: FISH staining of CUG RNA foci. It counts as cell-based, human. The note with it: single sgRNA; primary DM1 patient myoblasts; DNA-PKi treated. The gist of the method: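 CD56-purified primary DM1 patient myoblasts nucleofected with SluCas9:sgRNA RNP (30:90 pmol, single-cut), then DMSO or 3 μM DNA-PK inhibitor for 48 h. At 72 h post-nucleofection, cells fixed and stained for CUG foci with Cy3-PNA(CAG)5 probe (1 ng/μL, 80 °C), co-stained for MBNL1 and Hoechst, imaged by high-content confocal microscopy.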
Consider “CCCCCTAGCggccggggaggga (guide RNA; as printed in the source, key not given here) [SluU44]”, for which the “% of CUG foci free nuclei (DNA-PKi)” value was determined as 47%.

As for “CCCCGGGCACTCAGTCTTCCAA (guide RNA; chemistry not fully specified) [SluU12]”, the “% of CUG foci free nuclei (DNA-PKi)” value is reported as 50.23%.

On to “CCCCGTTGGAAGACTGAGTGCC (guide RNA; chemistry not fully specified) [SluU09]”, for which the “% of CUG foci free nuclei (DNA-PKi)” value came to 74.97%.

With “CCCCTCCTCACTTGCGCTGCTC (guide RNA; chemistry not fully specified) [SluD47]”, the “% of CUG foci free nuclei (DNA-PKi)” value is 28.63%.

Turning to “CCCGGGCACTCAGTCTTCCAAC (guide RNA; chemistry not fully specified) [SluU11]”, the “% of CUG foci free nuclei (DNA-PKi)” value is listed as 52.22%.

For “CCCGTTGGAAGACTGAGTGCCC (listed as DNA, chemistry not fully specified) [SluU10]”, the “% of CUG foci free nuclei (DNA-PKi)” value amounted to 72.18%.

Consider “CCCTAGAACTGTCTTCGACTCC (guide RNA; chemistry not fully specified) [SluU03]”, for which the “% of CUG foci free nuclei (DNA-PKi)” value was 49.49%.

With “CCGAGAGCAGCGCAAGTGAGGA (guide RNA; chemistry not fully specified) [SluD50]”, the “% of CUG foci free nuclei (DNA-PKi)” value is 30.13%.

Turning to “CCGGGCCCGCCCCCTAGCggcc (guide RNA; as printed in the source, key not given here) [SluU37]”, the “% of CUG foci free nuclei (DNA-PKi)” value is given as 30.58%.

As to “CCTCCGACTCGCTGACAGGCTA (guide RNA; chemistry not fully specified) [SluD67]”, the “% of CUG foci free nuclei (DNA-PKi)” value was 25.54%.

The same series, now with this note: single sgRNA; primary DM1 patient myoblasts; vehicle.
Take “CCCCCTAGCggccggggaggga (guide RNA; as printed in the source, key not given here) [SluU44]”: the “% of CUG foci free nuclei (Vehicle)” value is recorded as 12.6%.

In the case of “CCCCGGGCACTCAGTCTTCCAA (guide RNA; chemistry not fully specified) [SluU12]”, the “% of CUG foci free nuclei (Vehicle)” value was 16.44%.

For the substance “CCCCGTTGGAAGACTGAGTGCC (guide RNA; chemistry not fully specified) [SluU09]”, the “% of CUG foci free nuclei (Vehicle)” value is reported as 26.05%.

“CCCCTCCTCACTTGCGCTGCTC (guide RNA; chemistry not fully specified) [SluD47]”: the “% of CUG foci free nuclei (Vehicle)” value turned out to be 8.95%.

As for “CCCGGGCACTCAGTCTTCCAAC (guide RNA; chemistry not fully specified) [SluU11]”, the “% of CUG foci free nuclei (Vehicle)” value amounted to 19.12%.

As to “CCCGTTGGAAGACTGAGTGCCC (listed as DNA, chemistry not fully specified) [SluU10]”, the “% of CUG foci free nuclei (Vehicle)” value is given as 27.04%.

Regarding “CCCTAGAACTGTCTTCGACTCC (guide RNA; chemistry not fully specified) [SluU03]”, the “% of CUG foci free nuclei (Vehicle)” value turned out to be 11.12%.

In the case of “CCGAGAGCAGCGCAAGTGAGGA (guide RNA; chemistry not fully specified) [SluD50]”, the “% of CUG foci free nuclei (Vehicle)” value amounted to 7.64%.

For “CCGGGCCCGCCCCCTAGCggcc (guide RNA; as printed in the source, key not given here) [SluU37]”, the “% of CUG foci free nuclei (Vehicle)” value was 8.09%.

With “CCTCCGACTCGCTGACAGGCTA (guide RNA; chemistry not fully specified) [SluD67]”, the “% of CUG foci free nuclei (Vehicle)” value amounted to 10.06%.
